{
  "source": "patent US6914045B2",
  "about": "“Glycopeptide antibiotics” (Wyeth Holdings Corporation, priority 2001, dated 2005)",
  "key": {"Enterococcus sp.": {"tested_on": "Enterococcus sp.", "assay": "in vitro antibacterial evaluation, MIC by broth dilution", "format": "cell-based", "conditions": "broth dilution, 18 hours at 35° C.", "how_it_was_run": "(§1)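 Following National Committee for Clinical Laboratory Standards recommendations (M7-A2), susceptibility was measured by dilution in Muller-Hinton II […]. Bacteria were seeded at 5×10^5 CFU/mL against compound concentrations from 64 down to 0.06 μg/mL.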"}, "Staphylococcus sp.": {"tested_on": "Staphylococcus sp.", "assay": "in vitro antibacterial evaluation, MIC by broth dilution", "format": "cell-based", "conditions": "broth dilution, 18 hours at 35° C.", "how_it_was_run": "as §1"}, "Streptococcus sp.": {"tested_on": "Streptococcus sp.", "assay": "in vitro antibacterial evaluation, MIC by broth dilution", "format": "cell-based", "conditions": "broth dilution, 18 hours at 35° C.", "how_it_was_run": "as §1"}, "[1]": {"tested_on": "Enterococcus faecalis (GC 2246)", "assay": "acute lethal infection in mice", "format": "in vivo", "conditions": "female CD-1 mice, intraperitoneal challenge, intravenous 30 min. after infection, 7 day survival", "how_it_was_run": "(§2)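 Female CD-1 mice (20±2 g) got an intraperitoneal bacterial challenge lethal to untreated controls within 24–48 hr. Compound was dosed intravenously 30 min after infection, five mice per dose. ED50 was calculated from 7-day survival pooled across 3 tests.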"}, "[2]": {"tested_on": "Staphylococcus aureus-SMITH (GC 4543)", "assay": "acute lethal infection in mice", "format": "in vivo", "conditions": "acute lethal infection, female CD-1 mice, intraperitoneal challenge, intravenous 30 min. after infection, 7 day survival", "how_it_was_run": "as §2"}, "Escherichia coli": {"tested_on": "Escherichia coli", "assay": "in vitro antibacterial evaluation, MIC by broth dilution", "format": "cell-based", "conditions": "18 hours at 35° C.", "how_it_was_run": "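Broth dilution in Muller-Hinton II medium per NCCLS standard M7-A2, with an inoculum of 5×10^5 CFU/mL and antibiotic tested over 64-0.06 μg/mL. MIC was taken as the lowest concentration inhibiting visible growth.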"}},
  "data": [
    {"smiles": "CC(c1ccccc1)C1NC(=O)CNC(=O)C(CO)NC(=O)C(C(O)C2CNC(=N)N2C2OC(CO)C(O)C(O)C2O)NC(=O)C(C(O)C2CNC(=N)N2)NC(=O)C(Cc2ccc(OC3OC(CO)C(OC4OC(COC(=O)C(c5ccccc5)c5ccccc5)C(O)C(O)C4O)C(O)C3O)cc2)NC1=O", "note": "(stereo not drawn) [Example 96c, Cyclo[glycyl-β-methylphenylalanyl-O-[4-O-[6-O-(diphenylacetyl)hexolpyranosyl]hexopyranosyl]tyrosyl-3-(2-iminoimidazolidin-4-yl)seryl-3-(3-hexopyranosyl-2-iminoimidazolidin-4-yl)serylseryl]]", "values": [
      {"measurement": "MIC Enterococcus avium (GC 4558)", "setting": "Enterococcus sp.; Enterococcus avium (GC 4558)", "value": 2, "unit": "µg/mL"},
      {"measurement": "MIC Enterococcus faecalis (ATCC 29212)", "setting": "Enterococcus sp.; Enterococcus faecalis (ATCC 29212)", "value": 2, "unit": "µg/mL"},
      {"measurement": "MIC Enterococcus faecalis (GC 4552)", "setting": "Enterococcus sp.; Enterococcus faecalis (GC 4552)", "value": 2, "unit": "µg/mL"},
      {"measurement": "MIC Enterococcus faecalis (GC 4553)", "setting": "Enterococcus sp.; Enterococcus faecalis (GC 4553)", "value": 2, "unit": "µg/mL"},
      {"measurement": "MIC Enterococcus faecalis (GC 4554)", "setting": "Enterococcus sp.; Enterococcus faecalis (GC 4554)", "value": 2, "unit": "µg/mL"},
      {"measurement": "MIC Enterococcus faecium (GC 2243)", "setting": "Enterococcus sp.; Enterococcus faecium (GC 2243)", "value": 2, "unit": "µg/mL"},
      {"measurement": "MIC Enterococcus faecium (GC 4556)", "setting": "Enterococcus sp.; Enterococcus faecium (GC 4556)", "value": 2, "unit": "µg/mL"},
      {"measurement": "MIC Enterococcus faecium (GC 4557)", "setting": "Enterococcus sp.; Enterococcus faecium (GC 4557)", "value": 1, "unit": "µg/mL"},
      {"measurement": "MIC Enterococcus avium (GC 4558)", "setting": "Enterococcus sp.", "value": 2, "unit": "µg/mL"},
      {"measurement": "MIC Enterococcus faecalis (ATCC 29212)", "setting": "Enterococcus sp.", "value": 2, "unit": "µg/mL"},
      {"measurement": "MIC Enterococcus faecalis (GC 2242)", "setting": "Enterococcus sp.", "value": 1, "unit": "µg/mL"},
      {"measurement": "MIC Enterococcus faecalis (GC 4552)", "setting": "Enterococcus sp.", "value": 2, "unit": "µg/mL"},
      {"measurement": "MIC Enterococcus faecalis (GC 4553)", "setting": "Enterococcus sp.", "value": 2, "unit": "µg/mL"},
      {"measurement": "MIC Enterococcus faecalis (GC 4554)", "setting": "Enterococcus sp.", "value": 2, "unit": "µg/mL"},
      {"measurement": "MIC Enterococcus faecium (GC 2243)", "setting": "Enterococcus sp.", "value": 2, "unit": "µg/mL"},
      {"measurement": "MIC Enterococcus faecium (GC 4556)", "setting": "Enterococcus sp.", "value": 2, "unit": "µg/mL"},
      {"measurement": "MIC Enterococcus faecium (GC 4557)", "setting": "Enterococcus sp.", "value": 1, "unit": "µg/mL"},
      {"measurement": "MIC Enterococcus faecalis (GC 2242)", "setting": "Enterococcus sp.; strain GC 2242", "value": 1, "unit": "µg/mL"},
      {"measurement": "MIC Coagulase Negative Staphylococcus (GC 4547)", "setting": "Staphylococcus sp.", "value": 1, "unit": "µg/mL"},
      {"measurement": "MIC Coagulase Negative Staphylococcus (GC 4548)", "setting": "Staphylococcus sp.", "value": 0.25, "unit": "µg/mL"},
      {"measurement": "MIC Coagulase Negative Staphylococcus (GC 4549)", "setting": "Staphylococcus sp.", "value": 1, "unit": "µg/mL"},
      {"measurement": "MIC Coagulase Negative Staphylococcus (GC 4551)", "setting": "Staphylococcus sp.", "value": 1, "unit": "µg/mL"},
      {"measurement": "MIC Coagulase Negative Staphylococcus (ID-3941)", "setting": "Staphylococcus sp.", "value": 0.5, "unit": "µg/mL"},
      {"measurement": "MIC Staphylococcus aureus-SMITH (GC 4543)", "setting": "Staphylococcus sp.", "value": 0.5, "unit": "µg/mL"},
      {"measurement": "MIC Staphylococcus haemolyticus (GC 4546)", "setting": "Staphylococcus sp.", "value": 0.5, "unit": "µg/mL"},
      {"measurement": "MIC Staphylococcus aureus (ATCC 29213)", "setting": "Staphylococcus sp.; strain ATCC 29213", "value": 1, "unit": "µg/mL"},
      {"measurement": "MIC Staphylococcus aureus (GC 1131)", "setting": "Staphylococcus sp.; strain GC 1131", "value": 0.5, "unit": "µg/mL"},
      {"measurement": "MIC Staphylococcus aureus (GC 4541)", "setting": "Staphylococcus sp.; strain GC 4541", "value": 0.5, "unit": "µg/mL"},
      {"measurement": "MIC Staphylococcus aureus (GC 4542)", "setting": "Staphylococcus sp.; strain GC 4542", "value": 1, "unit": "µg/mL"},
      {"measurement": "MIC Staphylococcus aureus-SMITH (GC 4543)", "setting": "Staphylococcus sp.; strain GC 4543", "value": 0.5, "unit": "µg/mL"},
      {"measurement": "MIC Staphylococcus aureus (GC 4544)", "setting": "Staphylococcus sp.; strain GC 4544", "value": 1, "unit": "µg/mL"},
      {"measurement": "MIC Staphylococcus aureus (GC 4545)", "setting": "Staphylococcus sp.; strain GC 4545", "value": 0.5, "unit": "µg/mL"},
      {"measurement": "MIC Staphylococcus haemolyticus (GC 4546)", "setting": "Staphylococcus sp.; strain GC 4546", "value": 0.5, "unit": "µg/mL"},
      {"measurement": "MIC Coagulase Negative Staphylococcus (GC 4547)", "setting": "Staphylococcus sp.; strain GC 4547", "value": 1, "unit": "µg/mL"},
      {"measurement": "MIC Coagulase Negative Staphylococcus (GC 4548)", "setting": "Staphylococcus sp.; strain GC 4548", "value": 0.25, "unit": "µg/mL"},
      {"measurement": "MIC Coagulase Negative Staphylococcus (GC 4549)", "setting": "Staphylococcus sp.; strain GC 4549", "value": 1, "unit": "µg/mL"},
      {"measurement": "MIC Coagulase Negative Staphylococcus (GC 4551)", "setting": "Staphylococcus sp.; strain GC 4551", "value": 1, "unit": "µg/mL"},
      {"measurement": "MIC Coagulase Negative Staphylococcus (ID-3941)", "setting": "Staphylococcus sp.; strain ID-3941", "value": 0.5, "unit": "µg/mL"},
      {"measurement": "MIC Streptococcus agalactiae (GC 4564)", "setting": "Streptococcus sp.", "value": "<0.06", "unit": "µg/mL"},
      {"measurement": "MIC Streptococcus pneumoniae (GC 4565)", "setting": "Streptococcus sp.", "value": "<0.06", "unit": "µg/mL"},
      {"measurement": "MIC Streptococcus pyogenes (ID-3187)", "setting": "Streptococcus sp.", "value": "<0.06", "unit": "µg/mL"},
      {"measurement": "MIC Streptococcus agalactiae (GC 4564)", "setting": "Streptococcus sp.; strain GC 4564", "value": "<0.06", "unit": "µg/mL"},
      {"measurement": "MIC Streptococcus pneumoniae (GC 4565)", "setting": "Streptococcus sp.; strain GC 4565", "value": "<0.06", "unit": "µg/mL"},
      {"measurement": "MIC Streptococcus pyogenes (ID-3187)", "setting": "Streptococcus sp.; strain ID-3187", "value": "<0.06", "unit": "µg/mL"},
      {"measurement": "median effective dose (ED50), Enterococcus faecalis (GC 2246)", "setting": "[1]", "value": 5.2, "unit": "mg/kg"},
      {"measurement": "median effective dose (ED50), Staphylococcus aureus-SMITH (GC 4543)", "setting": "[2]", "value": 0.29, "unit": "mg/kg"},
      {"measurement": "MIC Escherichia coli (ATCC 25922)", "setting": "Escherichia coli", "value": 64, "unit": "µg/mL"}
    ]}
  ]
}
